The numbers were not newly measured in US7585869B2, “Substituted heterocylces for the treatment of abnormal cell growth” (Pfizer, Inc., priority 2003, dated 2009), which cites them from elsewhere.

In series [1] the test system is transplanted human mammary carcinoma which expresses epidermal growth factor receptor tyrosine kinase (EGFR). The settings on record: athymic nude mice.
For series [2], the system named is carcinoma which does not express the EGF receptor.

For the compound `O=CN/C=C/c1cc(O)ccc1O` [erbstatin], the “effect on growth of transplanted human mammary carcinoma” value in series [1] is recorded as “selectively attenuates the growth”. The “effect on growth of another carcinoma” value in series [2] is “without effect on the growth”.
